Experimental data published in patent US20250171437A1 (Agios Pharmaceuticals,Inc., priority 2022, published 2025).

Molecular target: T1, human PAH with the R408W mutation (A375 R408W cells) (Homo sapiens, UniProt P00439, R408W)
T1 construct: expressed in transfected cells
T1 sequence (P00439 1-452 R408W): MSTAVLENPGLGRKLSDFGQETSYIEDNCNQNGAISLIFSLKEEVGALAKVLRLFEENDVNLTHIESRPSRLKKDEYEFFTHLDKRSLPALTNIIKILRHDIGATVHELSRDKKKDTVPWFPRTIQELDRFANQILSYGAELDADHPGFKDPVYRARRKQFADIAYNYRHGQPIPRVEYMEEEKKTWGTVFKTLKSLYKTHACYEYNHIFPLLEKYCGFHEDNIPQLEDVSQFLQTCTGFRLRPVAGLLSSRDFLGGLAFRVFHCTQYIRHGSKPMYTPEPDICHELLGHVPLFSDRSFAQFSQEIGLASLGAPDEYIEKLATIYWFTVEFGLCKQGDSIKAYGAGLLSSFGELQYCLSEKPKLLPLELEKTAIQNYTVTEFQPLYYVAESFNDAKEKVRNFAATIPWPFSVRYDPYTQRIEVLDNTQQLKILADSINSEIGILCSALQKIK
Assay: Cell Based Phenylalanine Flux Assay
Conditions: 24 hrs with compound, then 20 μM sepiapterin and 800 μM 13C9,15N-Phenylalanine for 4 hours, 13C-Tyrosine by LC-MS, average where tested multiple times
Outline: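 LC-MS quantitation of 13C-tyrosine in media gave AC50 values. Stable A375 R408W PAH cells were preincubated 24 h with compound, then fed 800 μM labelled Phe plus 20 μM sepiapterin for 4 h. Dose curves were 10-point, tested in duplicate, averaged over repeat runs.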

[1] = A375 cells expressing R408W PAH

Compound	AC50 (A375 R408W cells) [nM]	AC50 [1] [nM]
Cc1nc(-c2ccccn2)oc1C(=O)N1CCc2[nH]cnc2[C@@H]1c1nc2cc(F)ccc2o1 [Example 32, (R)-(4-(5-fluorobenzo[d]oxazol-2-yl)-6,7-dihydro-1H-imidazo[4,5-c]pyridin-5(4H)-yl)(4-methyl-2-(pyridin-2-yl)oxazol-5-yl)methanone]	1000 to 5000	
Cc1cccc2nc([C@@H]3c4nc[nH]c4CCN3C(=O)c3nnc(-c4ccn(C)n4)o3)oc12 [Example 869, (S)-(5-(1-methyl-1H-pyrazol-3-yl)-1,3,4-oxadiazol-2-yl)(4-(7-methylbenzo[d]oxazol-2-yl)-6,7-dihydro-1H-imidazo[4,5-c]pyridin-5(4H)-yl)methanone]	≤ 500	
Cn1nc(Br)nc1C(=O)N1CCc2[nH]cnc2[C@@H]1c1nc2c(F)cccc2o1 [Example 472, (R)-(3-bromo-1-methyl-1H-1,2,4-triazol-5-yl)(4-(4-fluorobenzo[d]oxazol-2-yl)-6,7-dihydro-1H-imidazo[4,5-c]pyridin-5(4H)-yl)methanone]	1000 to 5000	
CN(C)Cc1ncc(C(=O)N2CCc3[nH]cnc3C2c2nc3cc(F)ccc3o2)o1 (centres unmarked)		≥ 5000
O=C(c1oc(-c2cncnc2)nc1C(F)F)N1CCc2[nH]cnc2[C@@H]1c1nc2cc(F)ccc2o1 [Example 405, (R)-(4-(difluoromethyl)-2-(pyrimidin-5-yl)oxazol-5-yl)(4-(5-fluorobenzo[d]oxazol-2-yl)-6,7-dihydro-1H-imidazo[4,5-c]pyridin-5(4H)-yl)methanone]	500 to 1000	
O=C(c1ccnn1C(F)F)N1CCc2[nH]cnc2[C@@H]1c1nc2c(F)cc(F)cc2o1 [Example 490, (R)-(4-(4,6-difluorobenzo[d]oxazol-2-yl)-6,7-dihydro-1H-imidazo[4,5-c]pyridin-5(4H)-yl)(1-(difluoromethyl)-1H-pyrazol-5-yl)methanone]	1000 to 5000	
Cn1nc(Cl)nc1C(=O)N1CCc2[nH]cnc2[C@H]1c1nc2cccc(F)c2o1 [Example 283, (S)-(3-chloro-1-methyl-1H-1,2,4-triazol-5-yl)(4-(7-fluorobenzo[d]oxazol-2-yl)-6,7-dihydro-1H-imidazo[4,5-c]pyridin-5(4H)-yl)methanone]	≤ 500	
CC(C)(O)C1CCN(c2ccc3c(C(=O)N4CCc5[nH]cnc5[C@@H]4c4nc5cccc(F)c5o4)cnn3c2)CC1 [Example 367, (R)-(4-(7-fluorobenzo[d]oxazol-2-yl)-6,7-dihydro-1H-imidazo[4,5-c]pyridin-5(4H)-yl)(6-(4-(2-hydroxypropan-2-yl)piperidin-1-yl)pyrazolo[1,5-a]pyridin-3-yl)methanone]	1000 to 5000	
CN1CCN(c2cn3ncc(C(=O)N4CCc5[nH]cnc5[C@@H]4c4nc5cc(F)ccc5o4)c3cc2Cl)CC1 [Example 182, (R)-(5-chloro-6-(4-methylpiperazin-1-yl)pyrazolo[1,5-a]pyridin-3-yl)(4-(5-fluorobenzo[d]oxazol-2-yl)-6,7-dihydro-1H-imidazo[4,5-c]pyridin-5(4H)-yl)methanone]	1000 to 5000	
O=C(c1nnc(C2CC2)o1)N1CCc2[nH]cnc2[C@H]1c1nc2cc(F)ccc2o1 [Example 15, (S)-(5-cyclopropyl-1,3,4-oxadiazol-2-yl)(4-(5-fluorobenzo[d]oxazol-2-yl)-6,7-dihydro-1H-imidazo[4,5-c]pyridin-5(4H)-yl)methanone]	500 to 1000	
O=C(c1nnc(C2CC2)o1)N1CCc2[nH]cnc2[C@@H]1c1nc2c(F)ccc(F)c2o1 [Example 856, (R)-(5-cyclopropyl-1,3,4-oxadiazol-2-yl)(4-(4,7-difluorobenzo[d]oxazol-2-yl)-6,7-dihydro-1H-imidazo[4,5-c]pyridin-5(4H)-yl)methanone]	500 to 1000	
O=C(c1ocnc1C(F)(F)F)N1CCc2[nH]cnc2[C@H]1c1nc2cccc(F)c2o1 [Example 171, (S)-(4-(7-fluorobenzo[d]oxazol-2-yl)-6,7-dihydro-1H-imidazo[4,5-c]pyridin-5(4H)-yl)(4-(trifluoromethyl)oxazol-5-yl)methanone]	≤ 500	
O=C(c1nnc(-c2ncccc2F)o1)N1CCc2[nH]cnc2[C@H]1c1nc2cccc(F)c2o1 [Example 868, (S)-(4-(7-fluorobenzo[d]oxazol-2-yl)-6,7-dihydro-1H-imidazo[4,5-c]pyridin-5(4H)-yl)(5-(3-fluoropyridin-2-yl)-1,3,4-oxadiazol-2-yl)methanone]	≤ 500	
C[C@H](O)c1nc(C(F)F)c(C(=O)N2CCc3[nH]cnc3[C@H]2c2nc3ccc(F)cc3o2)o1 [Example 231, (4-(difluoromethyl)-2-((S)-1-hydroxyethyl)oxazol-5-yl)((S)-4-(6-fluorobenzo[d]oxazol-2-yl)-6,7-dihydro-1H-imidazo[4,5-c]pyridin-5(4H)-yl)methanone]	500 to 1000	
CC(C)(O)c1nc(C(F)F)c(C(=O)N2CCc3[nH]cnc3[C@H]2c2nc3c(F)c(F)ccc3o2)o1 [Example 347, (S)-(4-(4,5-difluorobenzo[d]oxazol-2-yl)-6,7-dihydro-1H-imidazo[4,5-c]pyridin-5(4H)-yl)(4-(difluoromethyl)-2-(2-hydroxypropan-2-yl)oxazol-5-yl)methanone]	500 to 1000	
Cc1ccc2nc(C3c4nc[nH]c4CCN3C(=O)c3cncs3)oc2c1 (centres unmarked)		1000 to 5000

Compound	AC50 (A375 R408W cells) [nM]	AC50 [1] [nM]
C[C@H](O)c1nc(C(F)F)c(C(=O)N2CCc3[nH]cnc3[C@H]2c2nc3cc(F)ccc3o2)o1 [Example 157, (4-(difluoromethyl)-2-((S)-1-hydroxyethyl)oxazol-5-yl)((S)-4-(5-fluorobenzo[d]oxazol-2-yl)-6,7-dihydro-1H-imidazo[4,5-c]pyridin-5(4H)-yl)methanone]	500 to 1000	
O=C1CCCN1CCOc1ccc2c(C(=O)N3CCc4[nH]cnc4C3c3nc4cc(F)ccc4o3)cnn2c1 (centres unmarked)		≥ 5000
CCOC(=O)N1CCN(c2ccc3c(C(=O)N4CCc5[nH]cnc5C4c4nc5cc(F)ccc5o4)cnn3c2)CC1 (centres unmarked)		1000 to 5000
N#Cc1ccc2c(C(=O)N3CCc4[nH]cnc4C3c3nc4cc(F)ccc4o3)cnn2c1 (centres unmarked)		≥ 5000
Cn1ccc(-c2nnc(C(=O)N3CCc4[nH]cnc4[C@H]3c3nc4c(F)ccc(F)c4o3)o2)n1 [Example 813]	≤ 500	
O=C(c1ocnc1C(F)F)N1CCc2[nH]cnc2[C@H]1c1nc2ccc(F)c(F)c2o1 [Example 305, (S)-(4-(6,7-difluorobenzo[d]oxazol-2-yl)-6,7-dihydro-1H-imidazo[4,5-c]pyridin-5(4H)-yl)(4-(difluoromethyl)oxazol-5-yl)methanone]	≤ 500	
Cc1ccc2oc([C@H]3c4nc[nH]c4CCN3C(=O)c3oc(-c4ccccn4)nc3C(F)F)nc2c1 [Example 738, (R)-(4-(difluoromethyl)-2-(pyridin-2-yl)oxazol-5-yl)(4-(5-methylbenzo[d]oxazol-2-yl)-6,7-dihydro-1H-imidazo[4,5-c]pyridin-5(4H)-yl)methanone]	1000 to 5000	
CC(O)c1nc(Cl)c(C(=O)N2CCc3[nH]cnc3[C@@H]2c2nc3cc(F)ccc3o2)o1 (single isomer, unassigned) [Example 233]	1000 to 5000	
O=C(c1ocnc1C(F)F)N1Cc2[nH]cnc2[C@@H]1c1nc2ccccc2o1 [Example 922, (R)-(4-(benzo[d]oxazol-2-yl)-4,6-dihydropyrrolo[3,4-d]imidazol-5(1H)-yl)(4-(difluoromethyl)oxazol-5-yl)methanone]	1000 to 5000	
CC(C)(O)c1nc(C(F)F)c(C(=O)N2CCc3[nH]cnc3[C@H]2c2nc3cc(C(F)(F)F)ccc3o2)o1 [Example 327, (S)-(4-(difluoromethyl)-2-(2-hydroxypropan-2-yl)oxazol-5-yl)(4-(5-(trifluoromethyl)benzo[d]oxazol-2-yl)-6,7-dihydro-1H-imidazo[4,5-c]pyridin-5(4H)-yl)methanone]	≤ 500	
CC(C)n1ncnc1C(=O)N1CCc2[nH]cnc2[C@@H]1c1nc2cccc(F)c2o1 [Example 708, (R)-(4-(7-fluorobenzo[d]oxazol-2-yl)-6,7-dihydro-1H-imidazo[4,5-c]pyridin-5(4H)-yl)(1-isopropyl-1H-1,2,4-triazol-5-yl)methanone]	500 to 1000	
O=C(c1ocnc1C(F)F)N1CCc2[nH]cnc2[C@@H]1c1nc2ccccc2o1 [Example 468, (R)-(4-(benzo[d]oxazol-2-yl)-6,7-dihydro-1H-imidazo[4,5-c]pyridin-5(4H)-yl)(4-(difluoromethyl)oxazol-5-yl)methanone]	500 to 1000	
O=C(c1nnc(-c2cnn(C(F)F)c2)o1)N1CCc2[nH]cnc2[C@H]1c1nc2ccccc2o1 [Example 841, (S)-(4-(benzo[d]oxazol-2-yl)-6,7-dihydro-1H-imidazo[4,5-c]pyridin-5(4H)-yl)(5-(1-(difluoromethyl)-1H-pyrazol-4-yl)-1,3,4-oxadiazol-2-yl)methanone]	≤ 500	
Cn1ncnc1C(=O)N1CCc2[nH]cnc2C1c1nc2c(F)ccc(F)c2o1 (centres unmarked)		1000 to 5000
Cc1ccc2oc([C@@H]3c4nc[nH]c4CCN3C(=O)c3nnc(-c4ccn(C(F)F)n4)o3)nc2c1 [Example 695, (S)-(5-(1-(difluoromethyl)-1H-pyrazol-3-yl)-1,3,4-oxadiazol-2-yl)(4-(5-methylbenzo[d]oxazol-2-yl)-6,7-dihydro-1H-imidazo[4,5-c]pyridin-5(4H)-yl)methanone]	≤ 500	
Cc1ccc2oc(C3c4nc[nH]c4CCN3C(=O)c3cnco3)nc2c1 (centres unmarked)		≥ 5000
